# Reference: patent publication US20220033397A1, “PHARMACEUTICAL COMPOUNDS AND THEIR USE AS INHIBITORS OF UBIQUITIN SPECIFIC PROTEASE 19 (USP19)” (ALMAC DISCOVERY LIMITED, priority 2018, published 2022)
# Target: T1, Full-length USP19 (Homo sapiens, UniProt O94966)
# T1 construct: Full-length USP19 was purchased from Boston Biochem (E-576); purchased Boston Biochem E-576
# T1 sequence (O94966 1-1318): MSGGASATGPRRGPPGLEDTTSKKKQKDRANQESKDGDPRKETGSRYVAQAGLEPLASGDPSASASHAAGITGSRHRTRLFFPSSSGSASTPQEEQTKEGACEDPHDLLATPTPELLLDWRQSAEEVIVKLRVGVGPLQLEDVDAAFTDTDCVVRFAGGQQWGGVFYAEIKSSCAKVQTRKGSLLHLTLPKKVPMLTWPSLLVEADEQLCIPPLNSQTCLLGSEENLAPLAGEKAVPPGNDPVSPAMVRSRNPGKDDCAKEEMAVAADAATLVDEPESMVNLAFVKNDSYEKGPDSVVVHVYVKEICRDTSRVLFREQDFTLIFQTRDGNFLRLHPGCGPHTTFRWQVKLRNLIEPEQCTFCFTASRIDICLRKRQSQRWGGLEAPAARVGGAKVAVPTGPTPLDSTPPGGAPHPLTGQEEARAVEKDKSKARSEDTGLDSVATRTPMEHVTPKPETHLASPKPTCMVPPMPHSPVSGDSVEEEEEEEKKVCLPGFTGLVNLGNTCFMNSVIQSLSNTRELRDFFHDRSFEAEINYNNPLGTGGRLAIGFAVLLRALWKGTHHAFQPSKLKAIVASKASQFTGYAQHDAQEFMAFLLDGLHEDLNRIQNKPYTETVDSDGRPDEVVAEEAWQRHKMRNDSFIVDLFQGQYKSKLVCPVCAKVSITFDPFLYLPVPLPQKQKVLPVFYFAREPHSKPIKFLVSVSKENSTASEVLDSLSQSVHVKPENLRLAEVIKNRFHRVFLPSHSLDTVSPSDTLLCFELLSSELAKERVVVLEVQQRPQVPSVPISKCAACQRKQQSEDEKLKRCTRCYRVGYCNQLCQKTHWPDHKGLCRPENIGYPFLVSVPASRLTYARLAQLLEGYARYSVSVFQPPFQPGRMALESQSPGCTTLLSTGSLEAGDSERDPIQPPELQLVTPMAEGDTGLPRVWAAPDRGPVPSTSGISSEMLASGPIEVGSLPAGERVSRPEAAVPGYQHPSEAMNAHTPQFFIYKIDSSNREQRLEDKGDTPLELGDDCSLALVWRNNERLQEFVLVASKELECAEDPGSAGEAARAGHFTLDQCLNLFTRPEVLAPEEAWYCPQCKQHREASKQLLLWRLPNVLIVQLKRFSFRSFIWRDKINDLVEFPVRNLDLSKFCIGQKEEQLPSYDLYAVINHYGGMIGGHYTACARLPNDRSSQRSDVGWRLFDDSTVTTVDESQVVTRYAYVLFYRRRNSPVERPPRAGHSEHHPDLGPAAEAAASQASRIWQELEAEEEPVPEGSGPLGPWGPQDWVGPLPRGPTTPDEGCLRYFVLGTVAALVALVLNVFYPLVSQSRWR
# Assay: USP19 fluorescence polarisation (FP) homogeneous assay with Ubiquitin-Lys-TAMRA substrate
# Assay type: biochemical
# Conditions: 2.5 nM USP19, 30 min pre-incubation, average of at least two duplicate experiments
# In short: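 Full-length USP19 preincubated 30 min at RT with inhibitor (200 μM to 2 μM series, 8–18 points) before adding 500 nM Ubiquitin-Lys-TAMRA substrate.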
row,SMILES,IC50 [nM]
1,"CC1(C)CN(C(=O)N2CCOC[C@H]2c2ccccc2)CC[C@@]1(O)Cn1cnc(-c2ccccc2)cc1=O [Example 310, 3-(((S)-4-Hydroxy-3,3-dimethyl-1-((R)-3-phenylmorpholine-4-carbonyl)piperidin-4-yl)methyl)-6-phenylpyrimidin-4(3H)-one]",< 500
2,"O=C1Cn2ccnc2CN1CC1(O)CCN(C(=O)N2CCNC[C@H]2c2ccccc2)CC12CCCC2 (stereo partly drawn) [Example 119, 7-((10-Hydroxy-7-((R)-2-phenylpiperazine-1-carbonyl)-7-azaspiro[4.5]decan-10-yl)methyl)-7,8-dihydroimidazo[1,2-a]pyrazin-6(5H)-one]",500 to 5000
3,"O=C(N1CC[C@@](O)(Cn2cnc(-c3ccccc3)cc2=O)C2(CCCC2)C1)N1CCOC[C@@H]1c1ccccc1 [Example 212, 3-(((S)-10-Hydroxy-7-((S)-3-phenylmorpholine-4-carbonyl)-7-azaspiro[4.5]decan-10-yl)methyl)-6-phenylpyrimidin-4(3H)-one]",50000 to 250000
4,"C[C@H](CC1CCC1)C(=O)N1CCC(O)(Cn2ccncc2=O)C2(CCCC2)C1 (stereo partly drawn) [Example 4, 1-((7-((R)-3-Cyclobutyl-2-methylpropanoyl)-10-hydroxy-7-azaspiro[4.5]decan-10-yl)methyl) pyrazin-2(1H)-one]",500 to 5000
5,"Cc1ccccc1-c1cc(=O)n(C[C@]2(O)CCN(C(=O)N3CCNC[C@H]3c3ccccc3)CC23CCCC3)cn1 [Example 340, 3-(((S)-10-Hydroxy-7-((R)-2-phenylpiperazine-1-carbonyl)-7-azaspiro[4.5]decan-10-yl)methyl)-6-(o-tolyl)pyrimidin-4(3H)-one]",< 500
6,"O=C(N1CC[C@@](O)(Cn2cnc(-c3ccccc3)cc2=O)C2(CCCC2)C1)N1CCSC[C@H]1c1cc(F)ccc1F [Example 393, 3-(((S)-7-((R)-3-(2,5-Difluorophenyl)thio-morpholine-4-carbo-nyl)-10-hydroxy-7-azaspiro[4.5]decan-10-yl)methyl)-6-phenylpyrimidin-4(3H)-one]",< 500
7,"O=C(NCC1(F)CC1)N1CC[C@@](O)(Cn2cnc(-c3ccccc3)cc2=O)C2(CCCC2)C1 [Example 311, (S)—N-((1-Fluorocyclopropyl)methyl)-10-hydroxy-10-((6-oxo-4-phenylpyrimidin-1(6H)-yl)methyl)-7-azaspiro[4.5]decane-7-carboxamide]",500 to 5000
8,"O=C(N1CC[C@@](O)(Cn2cnc(-c3ccccc3)cc2=O)C2(CCCC2)C1)N1CCNCC1c1cccs1 (stereo partly drawn) [Example 358, 3-(((10S)-10-Hy-droxy-7-(2-(thio-phen-2-yl)piperazine-1-carbonyl)-7-aza-spiro[4.5]decan-10-yl)methyl)-6-phenylpyrimidin-4(3H)-one]",< 500
9,"CC(=O)N1CCN(C(=O)N2CC[C@@](O)(Cn3cnc(-c4ccccc4)cc3=O)C3(CCCC3)C2)[C@H](c2ccccc2)C1 [Example 279, 3-(((S)-7-((R)-4-Acetyl-2-phenylpiperazine-1-carbonyl)-10-hydroxy-7-azaspiro[4.5]decan-10-yl)methyl)-6-phenylpyrimidin-4(3H)-one]",500 to 5000
10,"O=C(N1CC[C@@](O)(Cn2cnc(-c3ccccc3F)cc2=O)C2(CCCC2)C1)N1CCNC[C@H]1c1ccccc1 [Example 314, 6-(2-Fluorophenyl)-3-(((S)-10-hydroxy-7-((R)-2-phenylpiperazine-1-carbonyl)-7-azaspiro[4.5]decan-10-yl)methyl)pyrimidin-4(3H)-one]",< 500
11,"C[C@H](CC1CCCCC1)C(=O)N1CCC(O)(Cn2c(=O)c3cncnc3n2C)C2(CCCC2)C1 (stereo partly drawn) [Example 174, 2-((7-((R)-3-Cyclohexyl-2-methylpropanoyl)-10-hydroxy-7-azaspiro[4.5]decan-10-yl)methyl)-1-methyl-1,2-dihydro-3H-pyrazolo[3,4-d]pyrimidin-3-one]",5000 to 50000
12,"O=C(N1CCC(O)(Cn2cnc(-c3ccccc3)cc2=O)C2(CCCC2)C1)N1CCOCC1C1CCC1 (centres unmarked) [Example 230, 3-((7-(3-Cyclobutylmorpholine-4-carbonyl)-10-hydroxy-7-azaspiro[4.5]decan-10-yl)methyl)-6-phenylpyrimidin-4(3H)-one]",50000 to 250000
13,"O=C(N1CC[C@@](O)(Cn2cnc(-c3ccccc3)cc2=O)C2(CCCC2)C1)N1CCNCC1c1cc(F)cc(F)c1 (mixture of isomers) [Example 380, 3-(((10S)-7-(2-(3,5-difluorophenyl)piper-azine-1-carbonyl)-10-hydroxy-7-azaspiro[4.5]decan-10-yl)methyl)-6-phenylpyrimidin-4(3H)-one]",< 500
14,"CN(C)C(=O)c1cn(C[C@]2(O)CCN(C(=O)N3CCOC[C@H]3c3ccccc3)CC2(C)C)c(=O)cc1-c1ccccc1 [Example 283, 1-(((S)-4-Hydroxy-3,3-dimethyl-1-((R)-3-phenylmorpholine-4-carbonyl)piperidin-4-yl)methyl)-N,N-dimethyl-6-oxo-4-phenyl-1,6-dihydropyridine-3-carboxamide]",< 500
15,"C[C@H](CC(F)(F)F)C(=O)N1CCC(O)(CN2C(=O)COCC23CC3)C2(CCCC2)C1 (stereo partly drawn) [Example 96, 4-((10-Hydroxy-7-((R)-4,4,4-trifluoro-2-methylbutanoyl)-7-azaspiro[4.5]decan-10-yl)methyl)-7-oxa-4-azaspiro[2.5]octan-5-one]",50000 to 250000
16,"O=C(NCc1cccc(F)c1)N1CC[C@@](O)(Cn2cnc(-c3ccccc3)cc2=O)C2(CCCC2)C1 [Example 216, (S)—N-(3-Fluorobenzyl)-10-hydroxy-10-((6-oxo-4-phenylpyrimidin-1(6H)-yl)methyl)-7-azaspiro[4.5]decane-7-carboxamide]",< 500
17,"Cc1nc2cnccc2c(=O)n1CC1(O)CCN(C(=O)[C@H](C)CC2CCCCC2)CC12CCCC2 (stereo partly drawn) [Example 153, 3-((7-((R)-3-Cyclohexyl-2-methylpropanoyl)-10-hydroxy-7-azaspiro[4.5]decan-10-yl)methyl)-2-methylpyrido[3,4-d]pyrimidin-4(3H)-one]",500 to 5000
18,"CS(C)(=O)=Nc1cn(CC2(O)CCN(C(=O)N3CCNC[C@H]3c3ccccc3)CC23CCCC3)c(=O)cc1-c1ccccc1 (stereo partly drawn) [Example 191, 5-((Dimethyl(oxo)-λ^6-sulfaneylidene)amino)-1-((10-hydroxy-7-((R)-2-phenylpiperazine-1-carbonyl)-7-azaspiro[4.5]decan-10-yl)methyl)-4-phenylpyridin-2(1H)-one]",< 500
19,"C[C@H](CC1CCCCC1)C(=O)N1CCC(O)(Cn2cc(S(C)(=N)=O)c(-c3ccccc3)cc2=O)C2(CCCC2)C1 (stereo partly drawn) [Example 74, 1-((7-((R)-3-Cyclohexyl-2-methylpropanoyl)-10-hydroxy-7-azaspiro[4.5]decan-10-yl)methyl)-5-(S-methylsulfonimidoyl)-4-phenylpyridin-2(1H)-one]",< 500
20,"O=C(N1CCC(O)(Cn2ccc3ccncc3c2=O)C2(CCCC2)C1)N1CCOC[C@H]1c1ccccc1 (stereo partly drawn) [Example 166, 2-((10-Hydroxy-7-((R)-3-phenylmorpholine-4-carbonyl)-7-azaspiro[4.5]decan-10-yl)methyl)-2,7-naphthyridin-1(2H)-one]",500 to 5000
21,"O=C(N1CCC(O)(Cn2cnc(-c3ccccc3)cc2=O)C2(CCCC2)C1)N1CCCC1C1CC1 (centres unmarked) [Example 264, 3-((7-(2-Cyclopropylpyrrolidine-1-carbonyl)-10-hydroxy-7-azaspiro[4.5]decan-10-yl)methyl)-6-phenylpyrimidin-4(3H)-one]",500 to 5000
22,"C[C@H](CC1CCCCC1)C(=O)N1CCC(O)(Cn2cc(C(=O)N(C)C)ncc2=O)C2(CCCC2)C1 (stereo partly drawn) [Example 10, 4-((7-((R)-3-Cyclohexyl-2-methylpropanoyl)-10-hydroxy-7-azaspiro[4.5]decan-10-yl)methyl)-N,N-dimethyl-5-oxo-4,5-dihydropyrazine-2-carboxamide]",< 500
23,"O=C(N1CCC(O)(Cn2cnc(-c3ccccc3)cc2=O)C2(CCCC2)C1)N1CCOCC1c1cccs1 (centres unmarked) [Example 235, 3-((10-Hydroxy-7-(3-(thiophen-2-yl)morpholine-4-carbonyl)-7-azaspiro[4.5]decan-10-yl)methyl)-6-phenylpyrimidin-4(3H)-one]",< 500
